The values below come from PMC4761891, “CD36 is a co-receptor for hepatitis C virus E1 protein attachment” (Scientific Reports, 2016).

Series [1] relates to HCV. Description: Anti-HCV activity in HCV-infected Huh7.5 cells (intracellular HCV RNA, qRT-PCR). The note with it: for EC50: Hepatitis C virus, read-out: half maximal effective concentration (EC50) against HCV at RNA level; for selective index (SI): Huh7.5 cells, cytotoxicity by MTT assay vs anti-HCV EC50, 72 hrs. The class given is cell-based, hepatitis C virus.
A further series deals with MDCK cells. The series is described as follows: Cytotoxicity in MDCK cells. The series is classed as cell-based. The note with it: Influenza virus BV/Shenzhen/155/2005 test.
The nature of series [2]: Cytotoxicity in MDCK cells. The series is classed as cell-based. To be noted: dog, Influenza virus A/Tianjin-Jinnan/15/2009 test.
The subject of another series is KM mice. The series is described as follows: Safety of SSO in vivo (single oral dose, KM mice). The note with it: single oral dose up to 1000 mg/kg, day 7. An excerpt:
KM mice at a weight of 21.0 ± 1.0 g were from Laboratory Animal Center, Academy of Military Medical Sciences, Beijing, China. The mice were randomly divided into four groups with 10 mice in each (♂ × 5, ♀ × 5). […] Body weight as well as survival was monitored. Seven days later, blood samples were taken for liver and kidney function examination.

The subject of series [3] is Coxsackie B virus (CoxV-B1). Description: microbe, parasite or virus in culture. The note with it: Vero.
Series [4] in a line: Cytotoxicity in Vero cells. The series is classed as cell-based. The note with it: African green monkey.
The test system of series [5] is HCV. Description: Influence of CD36 level on the anti-HCV activity of SSO. The series is classed as cell-based, hepatitis C virus. The note with it: 5 μM SSO for 2 hrs, HCV 150 IU/cell, RNA in 96 hrs, P < 0.01. The method, then:
Intracellular HCV RNA was analyzed with qRT-PCR in 96 hrs.

The test system of the next series is hepatitis B virus (HBV). Description: Activity against HBV in HepG2.2.15 cells. The series is classed as cell-based.
Series [6] relates to Influenza virus BV/Shenzhen/155/2005. The series is described as follows: microbe, parasite or virus in culture. To be noted: unidentified influenza virus, MDCK.
The target of another series is T1, SR-BI (Homo sapiens, UniProt Q8WTV0).
T1 construct: made in house; host or cells: 293T/17 cells
T1 sequence (Q8WTV0 1-509 isoform Q8WTV0-2): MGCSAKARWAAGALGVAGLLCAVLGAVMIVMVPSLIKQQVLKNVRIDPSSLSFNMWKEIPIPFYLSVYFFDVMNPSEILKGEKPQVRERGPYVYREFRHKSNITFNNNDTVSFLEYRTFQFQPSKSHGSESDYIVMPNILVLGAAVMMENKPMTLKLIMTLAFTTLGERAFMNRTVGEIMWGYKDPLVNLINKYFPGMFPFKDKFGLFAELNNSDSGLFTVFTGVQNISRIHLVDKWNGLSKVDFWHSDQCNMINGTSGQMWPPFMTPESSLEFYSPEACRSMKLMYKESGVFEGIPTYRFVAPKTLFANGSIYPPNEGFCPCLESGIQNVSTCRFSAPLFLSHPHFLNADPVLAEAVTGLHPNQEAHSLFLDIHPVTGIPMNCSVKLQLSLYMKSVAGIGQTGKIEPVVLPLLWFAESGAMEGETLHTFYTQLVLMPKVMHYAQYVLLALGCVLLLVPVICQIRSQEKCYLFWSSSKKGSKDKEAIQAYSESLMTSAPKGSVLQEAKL
The series is described as follows: BIAcore surface plasmon resonance binding to SR-BI-HA. The note with it: immobilised SR-BI-HA. The method, then: The 293T/17 cells were transfected with CD36-HA or SR-BI-HA plasmid using HD transfection reagent. At 48 hrs post transfection, cells were harvested and protein CD36-HA or SR-BI-HA was purified with Pierce Anti-HA Agarose (Thermo Scientific) and then desalinated with Zeba Spin Desaling Columns (Thermo Scientific). The concentration of purified proteins was quantified with Pierce BCA Protein Assay Kit (Thermo Scientific). Then, surface plasmon resonance experiments were performed on a BIAcore biosensor system (BIAcore T100). In brief, the carboxymethylated surface of series S sensor chip CM5 (GE Healthcare Bio-Sciences) was first activated with a mixture of N-hydroxysuccinimide (NHS) and 1-ethyl-3-(3- dimethylaminopropyl) carbodiimide hydro-chloride (EDC) (BIAcore AB). Subsequently, 200 μL of purified CD36-HA or SR-BI-HA at a concentration of 80 μg/mL was injected into the flow cell (FC2) for immobilization on the sensor surface. […] Compound VX-950 was used as negative control. Data were evaluated using the software BIAcore T100 Evaluation (BIAcore AB).

For another series, the system named is HCV particle. The series is described as follows: Interaction between HCV and compounds (direct inactivation of HCV particles). The series is classed as cell-based, hepatitis C virus. To be noted: 1 hr room temperature, Huh7.5, 72 hrs; for HCV inhibitory activity, Group 1 (treated HCV stock, no ultracentrifugation): SSO 10 μM or VX-950 0.5 μM, P < 0.01.
The nature of series [7]: Cytotoxicity in HepG2.2.15 cells. To be noted: human, HBV test. The class given is cell-based.
Series [8] deals with HCV. Description: Inhibition of HCV entry (treatment before, during or after infection). The series is classed as cell-based, hepatitis C virus. The note with it: Huh7.5 cells. An excerpt:
Then, the cells were washed and cultured with fresh medium. Intracellular HCV RNA and proteins were detected in 72 hrs.

The test system of series [9] is Influenza virus A/Tianjin-Jinnan/15/2009. Description: microbe, parasite or virus in culture. To be noted: unidentified influenza virus, MDCK.
Series [10] relates to HCV subgenomic replicon I 377-3′del.S in GS4.3 cells. The series is described as follows: HCV subgenomic replicon replication in GS4.3 cells. The series is classed as cell-based, hepatitis C virus. To be noted: 72 hrs incubation, intracellular RNA; VX-950 at 1.0 μM. The method, then: Huh7.5 cells infected with HCV (45 IU/cell), or GS4.3 replicon cells were treated with different concentration of compounds. After 72 hrs, intracellular RNA was extracted with RNeasy Mini Kit; total intracellular proteins were extracted with PER. HCV RNA and proteins were analyzed with qRT-PCR and WB, respectively. Compound cytotoxicity in Huh7.5 cells or GS4.3 replicon cells were evaluated at 72 hrs with the tetrazolium (MTT, Amresco) assay.
(Replicon systems follow genome replication, usually without infectious particles.)

Series [11] deals with hepatitis B virus, influenza virus, herpes simplex virus and Coxsackie virus. Description: Activity of CD36 inhibitors against other viruses. The series is classed as cell-based. The note with it: HepG2.2.15, MDCK and Vero cell cultures.
Series [12] has as its system herpes simplex virus type 1 (HSV-1). Description: Activity against HSV-1 in Vero cells. The series is classed as cell-based. To be noted: Human alphaherpesvirus 1; HSV-1, Vero.
The next series deals with T2, CD36 (Homo sapiens, UniProt P16671).
T2 construct: made in house; host or cells: 293T/17 cells
Description: BIAcore surface plasmon resonance binding to CD36-HA. To be noted: immobilised CD36-HA; SSO 50, 100, 200, 500 μM.

The test system of series [13] is HCV. The series is described as follows: Time-of-addition assay. The note with it: 10 nM bafilomycin A1, Huh7.5, HCV 300 IU/cell. The class given is cell-based, hepatitis C virus. The method, then:
Huh7.5 cells were infected with HCV (300 IU/cell) and incubated at 4 °C for 2 hrs, the cells were then washed with cold PBS and shifted to 37 °C (set as 0 hr time point) to initiate synchronous infection. […] Intracellular HCV RNA was detected after 72 hrs incubation. Inhibitory ratio was calculated as % relative to infectious control (0%). Fitted lines represent sigmoidal time-dependent curves.

The CC50 is the concentration giving 50% cytotoxicity. Higher therefore signals better tolerance by the cells.

Molecules are shown by their SMILES. Like-named read-outs stand apart in the source and are kept apart here.

T2 sequence (P16671 whole entry): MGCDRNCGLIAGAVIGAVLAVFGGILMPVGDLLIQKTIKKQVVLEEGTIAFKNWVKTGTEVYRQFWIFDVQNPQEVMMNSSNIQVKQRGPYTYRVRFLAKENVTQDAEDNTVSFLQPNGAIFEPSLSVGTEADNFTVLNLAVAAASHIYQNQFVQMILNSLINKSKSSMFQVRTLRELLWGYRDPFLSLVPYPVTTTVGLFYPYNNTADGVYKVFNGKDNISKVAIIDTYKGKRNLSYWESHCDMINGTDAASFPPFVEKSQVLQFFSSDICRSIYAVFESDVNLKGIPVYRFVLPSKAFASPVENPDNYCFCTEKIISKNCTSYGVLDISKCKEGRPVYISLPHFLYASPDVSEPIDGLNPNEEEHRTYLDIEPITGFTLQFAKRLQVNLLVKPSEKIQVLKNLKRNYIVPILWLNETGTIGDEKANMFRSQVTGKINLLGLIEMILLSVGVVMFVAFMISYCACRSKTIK

`COc1cc(O)c(/C=N/NC(=O)c2cc3ccccc3s2)c(OC)c1` [AP5055]: the EC50 in the series with HCV [1] (Huh7.5 cells infected with HCV (45 IU/cell), 72 hrs, intracellular HCV RNA) was 0.39 ± 0.16 µM. In addition, the “selective index (SI)” value in the series with HCV [1] came out at 25.

For `CCCCCCCC/C=C\CCCCCCCC(=O)ON1C(=O)CC(S(=O)(=O)O)C1=O` (centres unmarked) [SSO, sulfo-N-succinimidyl oleate], the EC50 in the series on HCV [1] (Huh7.5, 72 h) was 0.31 ± 0.09 µM; in series [3] it was greater than 66.7 µM; in the series with hepatitis B virus (HBV) it was greater than 100 µM; in series [6], 200 µM; in series [9] it was 79 µM; in series [12], greater than 200 µM. In the series on HCV [1] (SSO 1.0 μM + IFN-α 1.0 U/mL, HCV-infected Huh7.5 cells, 72 hrs, P < 0.05 vs IFN-α alone), the “anti-HCV efficacy in combination with IFN-α” value is given as “enhanced anti-HCV efficacy”. Moreover, the “anti-HCV efficacy in combination with telaprevir (VX-950)” value in the series on HCV [1] (SSO 1.0 μM + VX-950 0.1 μM, HCV-infected Huh7.5 cells, 72 hrs, P < 0.05 vs telaprevir alone) is “enhanced anti-HCV efficacy”. Also, the CC50 with MDCK cells is greater than 200 µM; in series [2], greater than 200 µM; in series [4] (CoxV-B1 test), 111 µM; in [4] (HSV-1 test) it was greater than 200 µM; in series [7], greater than 100 µM. In addition, the “liver and kidney function: blood GOT, GPT, BUN and CRE” value in the series with KM mice was “abnormality was not detected”. The “anti-HCV activity of SSO in cells transfected with CD36 plasmid” value with HCV [5] is “decreased”. Further, the “anti-HCV activity of SSO in cells transfected with siRNA for CD36” value in the series on HCV [5] was “increased”. Also, the “direct binding to SR-BI (BIAcore)” value at SR-BI was “no binding on SR-BI”. Moreover, the “HCV inhibitory activity, Group 1 (treated HCV stock, no ultracentrifugation)” value in the series on HCV particle is on record as “showed HCV inhibitory activity”. For the same compound, in the series on HCV particle (SSO 10 μM, ultracentrifuged, P > 0.05), the “infectivity of treated virus, Group 2 (after ultracentrifugation)” value is recorded as “infectivity equal to that of untreated control”. In addition, the “HCV replication, treatment after infection” value in the series on HCV [8] (2 hrs treatment after infection, detected in 72 hrs, P > 0.05) is “no inhibitory effect”. The “HCV replication, treatment before and during HCV infection” value in the series on HCV [8] (2 hrs treatment, HCV RNA and proteins in 72 hrs, P < 0.01) was “strongly inhibit HCV replication”. For the same compound, the “replication of the HCV replicon in GS4.3 cells” value in [10] was “did not inhibit the replication”. Moreover, the “inhibitory activity on hepatitis B virus, influenza virus, herpes simplex virus and Coxsackie virus” value in series [11] is reported as “no inhibitory activity”.

In the case of `CCC[C@H](NC(=O)[C@@H]1[C@H]2CCC[C@H]2CN1C(=O)[C@@H](NC(=O)[C@@H](NC(=O)c1cnccn1)C1CCCCC1)C(C)(C)C)C(=O)C(=O)NC1CC1` [VX-950, telaprevir], the “direct binding to SR-BI (BIAcore)” value at SR-BI is recorded as “no binding on SR-BI”. Also, the “HCV inhibitory activity, Group 1 (treated HCV stock, no ultracentrifugation)” value with HCV particle was “showed HCV inhibitory activity”. Also, at CD36, the “direct binding to CD36 (BIAcore)” value is on record as “did not bind onto CD36”. Further, in series [10], the “replication of the HCV replicon in GS4.3 cells” value is “strong inhibitory effect”.

With `COc1ccc2cc[n+](CCc3ccccc3)cc2c1O` [W-9], the EC50 with HCV [1] (Huh7.5, 72 h) was found to be 6.61 ± 3.18 µM. Also, in the series on HCV [1], the “selective index (SI)” value was 20.

For the compound `CO/C1=C\C(C)=C\[C@@H](C)[C@@H](O)[C@@H](C)C/C(C)=C/C=C/[C@H](OC)[C@@H]([C@@H](C)[C@@H](O)[C@H](C)[C@@]2(O)C[C@@H](O)[C@H](C)[C@@H](C(C)C)O2)OC1=O` [bafilomycin A1], the “time HCV remained sensitive to the inhibitor after shift to 37 °C” value in the series with HCV [13] came to 3 h.
